We go through twelve molecules from patent US9815841B2, “Compounds” (GLAXOSMITHKLINE INTELLECTUAL PROPERTY DEVELOPMENT LIMITED, priority 2014, dated 2017).

In this experiment the target is T1, recombinant full length LRRK2 over-expressed in SH-SY5Y cells (Homo sapiens, UniProt Q5S007).
T1 construct: A BacMam virus expressing full length recombinant LRRK2 was purchased from Invitrogen; host or cells: SH-SY5Y human neuroblastoma cells transduced with BacMam LRRK2 virus
T1 sequence (Q5S007 whole entry): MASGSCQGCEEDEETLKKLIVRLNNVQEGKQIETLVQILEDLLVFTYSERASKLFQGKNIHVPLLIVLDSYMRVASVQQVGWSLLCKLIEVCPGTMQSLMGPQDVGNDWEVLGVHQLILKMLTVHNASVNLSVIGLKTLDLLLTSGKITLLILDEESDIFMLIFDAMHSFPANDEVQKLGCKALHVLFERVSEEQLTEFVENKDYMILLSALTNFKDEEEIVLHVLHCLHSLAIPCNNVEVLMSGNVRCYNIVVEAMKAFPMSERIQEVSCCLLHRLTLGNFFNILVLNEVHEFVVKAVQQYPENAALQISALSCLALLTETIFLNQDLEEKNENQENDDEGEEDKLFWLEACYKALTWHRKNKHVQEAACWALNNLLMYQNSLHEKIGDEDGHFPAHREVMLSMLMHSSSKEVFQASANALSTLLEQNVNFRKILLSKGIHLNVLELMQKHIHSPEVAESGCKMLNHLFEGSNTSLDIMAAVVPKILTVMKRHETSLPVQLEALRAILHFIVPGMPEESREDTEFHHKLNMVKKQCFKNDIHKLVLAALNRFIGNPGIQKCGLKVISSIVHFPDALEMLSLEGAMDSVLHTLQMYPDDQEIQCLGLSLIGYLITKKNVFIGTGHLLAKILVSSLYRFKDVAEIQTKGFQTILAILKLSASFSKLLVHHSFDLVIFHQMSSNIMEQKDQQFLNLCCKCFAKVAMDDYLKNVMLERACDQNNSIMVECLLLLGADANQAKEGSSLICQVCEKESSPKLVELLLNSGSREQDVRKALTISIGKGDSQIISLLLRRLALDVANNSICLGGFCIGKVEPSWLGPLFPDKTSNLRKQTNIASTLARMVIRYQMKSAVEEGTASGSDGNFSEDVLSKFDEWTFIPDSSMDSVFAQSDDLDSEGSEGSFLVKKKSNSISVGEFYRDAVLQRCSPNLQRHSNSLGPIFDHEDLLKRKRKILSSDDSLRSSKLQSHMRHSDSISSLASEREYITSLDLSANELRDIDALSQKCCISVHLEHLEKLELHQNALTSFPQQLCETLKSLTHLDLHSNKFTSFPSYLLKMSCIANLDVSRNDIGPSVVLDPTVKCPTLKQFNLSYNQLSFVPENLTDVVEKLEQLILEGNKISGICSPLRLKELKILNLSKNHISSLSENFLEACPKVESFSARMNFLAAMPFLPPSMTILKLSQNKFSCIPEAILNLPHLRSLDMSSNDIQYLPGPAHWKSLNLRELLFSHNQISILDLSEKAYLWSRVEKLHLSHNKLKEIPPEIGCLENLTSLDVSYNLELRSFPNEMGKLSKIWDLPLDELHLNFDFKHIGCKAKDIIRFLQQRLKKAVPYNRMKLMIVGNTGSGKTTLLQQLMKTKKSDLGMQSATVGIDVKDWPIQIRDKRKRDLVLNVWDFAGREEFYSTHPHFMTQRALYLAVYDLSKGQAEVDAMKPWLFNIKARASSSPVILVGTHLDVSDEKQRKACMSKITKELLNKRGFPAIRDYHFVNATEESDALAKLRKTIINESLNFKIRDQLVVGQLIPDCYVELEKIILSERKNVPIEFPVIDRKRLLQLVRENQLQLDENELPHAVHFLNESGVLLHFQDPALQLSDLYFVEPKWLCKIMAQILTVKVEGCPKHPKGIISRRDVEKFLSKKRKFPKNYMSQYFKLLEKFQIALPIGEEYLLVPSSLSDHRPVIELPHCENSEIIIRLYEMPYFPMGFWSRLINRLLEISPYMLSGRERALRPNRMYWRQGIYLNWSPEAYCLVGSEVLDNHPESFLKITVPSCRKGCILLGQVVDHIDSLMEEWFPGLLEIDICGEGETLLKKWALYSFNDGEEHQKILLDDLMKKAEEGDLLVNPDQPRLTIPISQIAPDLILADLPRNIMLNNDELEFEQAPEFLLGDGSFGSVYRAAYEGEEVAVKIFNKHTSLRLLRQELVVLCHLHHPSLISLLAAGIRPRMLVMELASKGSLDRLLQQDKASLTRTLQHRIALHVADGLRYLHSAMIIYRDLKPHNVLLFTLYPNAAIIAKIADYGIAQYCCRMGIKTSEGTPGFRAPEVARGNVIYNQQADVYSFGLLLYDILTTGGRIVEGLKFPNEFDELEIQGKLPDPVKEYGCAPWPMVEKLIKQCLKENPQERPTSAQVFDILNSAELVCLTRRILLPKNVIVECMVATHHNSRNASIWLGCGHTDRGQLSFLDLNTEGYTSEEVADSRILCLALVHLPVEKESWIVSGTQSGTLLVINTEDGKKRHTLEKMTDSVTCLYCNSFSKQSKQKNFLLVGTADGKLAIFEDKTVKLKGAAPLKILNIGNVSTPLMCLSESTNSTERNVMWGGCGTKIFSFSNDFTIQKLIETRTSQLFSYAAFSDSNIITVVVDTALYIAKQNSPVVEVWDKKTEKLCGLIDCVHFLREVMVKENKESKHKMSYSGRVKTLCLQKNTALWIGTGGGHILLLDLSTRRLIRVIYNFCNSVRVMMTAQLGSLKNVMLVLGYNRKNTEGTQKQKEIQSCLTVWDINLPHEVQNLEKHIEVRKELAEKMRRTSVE
Briefly: Recombinant cellular LRRK2 AlphaScreen assay (LRRK2 Ser935 phosphorylation). The class given is cell-based. The conditions noted are these: SH-SY5Y cells with BacMam LRRK2, 60 minutes compound incubation, read-out: recombinant cellcular LRRK2 alphaScreen assay (pIC50) (converted). On the procedure:
Recombinant Cellular LRRK2 AlphaScreen Assay
A BacMam virus expressing full length recombinant LRRK2 was purchased from Invitrogen and amplified by inoculation of SF-9 cells at MOI 0.3 for 4-5 days in Sf-900 III SFM medium supplemented with 3% fetal bovine serum. Infected cell cultures were then centrifuged at 2000 g for 20 minutes, viral supernatant titer determined by anti-gp64 plaque assay and stored at 4° C.
Affinity-purified anti-phospho LRRK2 Ser935 sheep polyclonal antibody (Dzamko et al., 2010, Biochem. J. 430: 405-413) was biotinylated by standard methods (PerkinElmer). Anti-LRRK2 rabbit polyclonal antibody was purchased from Novus Biologicals. AlphaScreen Protein A IgG Kit (including acceptor and donor beads) was purchased from Perkin Elmer.
SH-SY5Y cells were grown in DMEM/F12 medium with 10% dialysed fetal bovine serum and harvested by treatment with 0.5% trypsin-EDTA for 5 minutes at […] followed by centrifugation at 1000 rpm for 4 minutes. The cell pellet was resuspended in Opti-MEM reduced serum media (Invitrogen) at 200,000 cells/ml and mixed with the BacMam LRRK2 virus at MOI=50. 50 μl cell solutions were then dispensed to each well of a 384-well plate and incubated at 37° C., 5% CO2 for 24 hours.
Serial dilutions of test compounds were prepared in Opti-MEM reduced serum media (Invitrogen) and 5.6 ul transferred from compound plate to cell assay plate to achieve a top final assay concentration of 10 uM. DMSO was used in certain wells as controls. Cells were incubated at 37° C., 5% CO2 for 60 minutes. The medium was then removed and cells lysed by addition of 20 ul cell lysis buffer (Cell Signaling Technology) and incubation at 4° C. for 20 minutes. 10 ul of antibody/acceptor bead mix [(1/1000 biotinylated-pS935 LRRK2 antibody, 1/1000 total-LRRK2 antibody, 1/100 Acceptor beads in AlphaScreen detection buffer (25 mM Hepes (pH 7.4), 0.5% Triton X-100, 1 mg/ml Dextran 500 and 0.1% BSA)] was then added to each well and plates incubated for 2 hours at ambient temperature in the dark. 10 μl of donor beads solution (1/33.3 donor beads in AlphaScreen detection buffer) was then added to each well. Following incubation for a further 2 hours at ambient temperature in the dark, plates were read on an EnVision™ plate reader at emission 520-620 nm with excitation 680 nm. Dose response curve data was based on sigmoidal dose-response model.
(In Alpha technology, singlet oxygen from a donor bead excites a nearby acceptor bead.)
In the case of `CCOc1nc(Nc2ccc(C(=O)N3CCOCC3)cc2OC)nc2[nH]ccc12` [Example E1, (4-((4-ethoxy-7H-pyrrolo-[2,3-d]-pyrimidin-2-yl)amino)-3-methoxyphenyl)(morpholino)methanone], the IC50 was 158 nM. Under `CCOc1nc(Nc2cc(F)c(C(=O)N3CCOCC3)cc2OC)nc2[nH]ccc12` [Example E2, (4-((4-ethoxy-7H-pyrrolo-[2,3-d]-pyrimidin-2-yl)amino)-2-fluoro-5-methoxyphenyl)(morpholino)methanone] stands 200 nM. Under `CCOc1nc(Nc2ccc(C(=O)N3CCN(C)CC3)cc2OC)nc2[nH]ccc12` [Example E3, (4-((4-ethoxy-7H-pyrrolo-[2,3-d]-pyrimidin-2-yl)amino)-3-methoxyphenyl)(4-methylpiperazin-1-yl)-methanone] stands 158 nM. Consider `CCOc1nc(Nc2ccc(C(=O)N3CCC(N4CCN(C)CC4)CC3)cc2OC)nc2[nH]ccc12` [Example E4, (4-((4-ethoxy-7H-pyrrolo-[2,3-d]pyrimidin-2-yl)amino)-3-methoxyphenyl)(4-(4-methylpiperazin-1-yl)-piperidin-1-yl)-methanone], for which the IC50 was not above 100 nM.

As to `CCOc1nc(Nc2ccc(C(=O)N3CCOCC3)cc2)nc2[nH]ccc12` [Example E9, (4-((4-ethoxy-7H-pyrrolo-[2,3-d]pyrimidin-2-yl)amino)phenyl)(morpholino)methanone], the IC50 was not above 100 nM. Under `CCOc1nc(Nc2ccc(C(=O)N3CCC4(CC3)CN(C)C4)cc2OC)nc2[nH]ccc12` [Example E13, (4-((4-ethoxy-7H-pyrrolo-[2,3-d]-pyrimidin-2-yl)amino)-3-methoxyphenyl)(2-methyl-2,7-diazaspiro-[3.5]-nonan-7-yl)methanone] stands not above 100 nM; under `CCOc1nc(Nc2ccc(C(=O)N3CCC4(CC3)CC4)cc2OC)nc2[nH]ccc12` [Example E16, (4-((4-ethoxy-7H-pyrrolo-[2,3-d]-pyrimidin-2-yl)amino)-3-methoxyphenyl)(6-azaspiro-[2.5]octan-6-yl)methanone], 398 nM. Under `CCOc1cc(C(=O)N2CCOCC2)ccc1Nc1nc(OCC)c2cc[nH]c2n1` [Example E20, (3-ethoxy-4-((4-ethoxy-7H-pyrrolo-[2,3-d]pyrimidin-2-yl)amino)phenyl)(morpholino)methanone] stands 200 nM; under `CCOc1nc(Nc2ccc(C(=O)N3CCN(C)CC3)cc2OC(C)C)nc2[nH]ccc12` [Example E24, (4-((4-ethoxy-7H-pyrrolo-[2,3-d]pyrimidin-2-yl)amino)-3-isopropoxyphenyl)(4-methylpiperazin-1-yl)methanone], 398 nM; under `CCOc1nc(Nc2ccc(C(=O)N3CCOC[C@@H]3C)cc2OC)nc2[nH]ccc12` [Example E27, (S)-(4-((4-ethoxy-7H-pyrrolo-[2,3-d]pyrimidin-2-yl)amino)-3-methoxyphenyl)(3-methylmorpholino)methanone], not above 100 nM.

`CCOc1nc(Nc2ccc(C(=O)N3CCN(C)CC3)cc2OC)nc2[nH]cc(C)c12` [Example E31, (4-((4-ethoxy-5-methyl-7H-pyrrolo-[2,3-d]pyrimidin-2-yl)amino)-3-methoxyphenyl)(4-methylpiperazin-1-yl)methanone]: the IC50 was not above 100 nM. Under `CCOc1nc(Nc2ccc(C(=O)N3CCN(C)C[C@H]3C)cc2OC)nc2[nH]ccc12` [Example E40, (R)-(2,4-dimethylpiperazin-1-yl)(4-((4-ethoxy-7H-pyrrolo-[2,3-d]-pyrimidin-2-yl)-amino)-3-methoxyphenyl)methanone] stands 50.1 nM.
